This is an account of results in patent US10118935B2, “Melampomagnolide B dimers” (priority 2014, dated 2018).

Molecules are shown by their SMILES. Read-outs that look alike come from different tables or passages of the source.

As a reminder, the EC50 is the concentration needed to bring the measured effect to its halfway point.

Data set [1] concerns M9ENL AML cell lines. The data set is described as follows: cells. The following applies: Table 5; cell line not given.
Data set [2] deals with M9ENL AML cell lines. The following applies: for EC50: Table 5, cell line not given; for CC50: read-out: LC50, M9ENL AML cell lines, after 24 hours of drug exposure; for potency relative to parthenolide and MMB: M9 ENL cell lines.
Data set [3] has as its system AML cell line AML 123009. Particulars: for cytotoxicity relative to PTL: AML 123009, FIG. 6; for EC50: read-out: Viability EC50, AML cell line 123009.

Take `CN(C)CC1C(=O)O[C@H]2[C@H]1CC/C(COC(=O)NCCCCCCCCNC(=O)OC/C1=C/CC[C@@]3(C)O[C@H]3[C@H]3OC(=O)C(CN(C)C)[C@@H]3CC1)=C\CC[C@@]1(C)O[C@@H]21` (single isomer, unassigned) [JVM 3-62A]: the EC50 in data set [1] amounted to 1300 nM.

In data set [2], `CN(C)CC1C(=O)O[C@H]2[C@H]1CC/C(COC(=O)NCCCCCCCCNC(=O)OC/C1=C/CC[C@@]3(C)O[C@H]3[C@H]3OC(=O)C(CN(C)C)[C@@H]3CC1)=C\CC[C@@]1(C)O[C@@H]21` (single isomer, unassigned) [JVM 3-62B] showed a half-maximal effective concentration (EC50) of 1200 nM.

With `C=C1C(=O)O[C@H]2[C@H]1CC/C(COC(=O)OCCC(CCOC(=O)OC/C1=C/CC[C@@]3(C)O[C@H]3[C@H]3OC(=O)C(=C)[C@@H]3CC1)O[Si](C)(C)C(C)(C)C)=C\CC[C@@]1(C)O[C@@H]21` (stereo partly drawn) [BS-3-14], the EC50 in data set [1] came out at 1110 nM.

In the case of `C=C1C(=O)O[C@H]2[C@H]1CC/C(COC(=O)NCCC(O)CCNC(=O)OC/C1=C/CC[C@@]3(C)O[C@H]3[C@H]3OC(=O)C(=C)[C@@H]3CC1)=C\CC[C@@]1(C)O[C@@H]21` (stereo partly drawn) [BS-3-24], in data set [1], the concentration for a half-maximal effect (EC50) stood at 9030 nM.

As for `C=C1C(=O)O[C@H]2[C@H]1CC/C(COC(=O)OCCC(CCOC(=O)OC/C1=C/CC[C@@]3(C)O[C@H]3[C@H]3OC(=O)C(=C)[C@@H]3CC1)OCCCCCCCCCCn1cc(CNC(=O)CCCCC3SCC4NC(=O)NC43)nn1)=C\CC[C@@]1(C)O[C@@H]21` (stereo partly drawn) [BS-4-38a], a half-maximal response in data set [1] (EC50) required 20000 nM.

Compound `C=C1C(=O)O[C@H]2[C@H]1CC/C(COC(=O)OCCC(CCO)OCCCCCCCCCCn1cc(CNC(=O)CCCCC3SCC4NC(=O)NC43)nn1)=C\CC[C@@]1(C)O[C@@H]21` (stereo partly drawn) [BS-4-38b] returned an EC50 in data set [1] of 30000 nM.

In turn, `CN(C)CC1C(=O)O[C@H]2[C@H]1CC/C(COC(=O)OC/C1=C/CC[C@@]3(C)O[C@H]3[C@H]3OC(=O)C(CN(C)C)[C@@H]3CC1)=C\CC[C@@]1(C)O[C@@H]21` (stereo partly drawn) [JVM 3-55 B] displayed a 50% effective concentration (EC50) in data set [1] of 5100 nM.

For the compound `C=C1C(=O)OC2C1CCC(COC(=O)NCCCNC(=O)OCC1=CCCC3(C)OC3C3OC(=O)C(=C)C3CC1)=CCCC1(C)OC21` [JVM 3-55, bis(((1aR,7aS,10aS,10bS,E)-1a-Methyl-8-methylene-9-oxo-1a,2,3,6,7,7a,8,9,10a,10b-decahydrooxireno[2′,3′:9,10]cyclodeca[1,2-b]furan-5-yl)methyl)propane-1,3-diyldicarbamate], the CC50 in data set [2] was found to be 560 nM.

On to `C=C1C(=O)OC2C1CCC(COC(=O)NCCCCCCCNC(=O)OCC1=CCCC3(C)OC3C3OC(=O)C(=C)C3CC1)=CCCC1(C)OC21` [JVM 3-58, bis(((1aR,7aS, 10aS, 10bS, E)-1a-Methyl-8-methylene-9-oxo-1a,2,3,6,7,7a,8,9,10a,10b-decahydrooxireno[2′,3′:9,10]cyclodeca[1,2-b]furan-5-yl)methyl)heptane-1,7-diyldicarbamate], for which, in data set [2], the CC50 stood at 1200 nM.

Take `C=C1C(=O)OC2C1CCC(COC(=O)NCCCCCCCCCNC(=O)OCC1=CCCC3(C)OC3C3OC(=O)C(=C)C3CC1)=CCCC1(C)OC21` [JVM 3-61, bis(((1aR,7aS, 10aS, 10bS, E)-1a-Methyl-8-methylene-9-oxo-1a,2,3,6,7,7a,8,9,10a, 1b-decahydrooxireno[2′,3′:9,10]cyclodeca[1,2-b]furan-5-yl)methyl)nonane-1,9-diyldicarbamate]: the CC50 in data set [2] stood at 1800 nM.

In turn, `C=C1C(=O)O[C@H]2[C@H]1CC/C(COC(=O)NCCCCCCCCNCC1C(=O)O[C@H]3[C@H]1CC/C(COC(=O)NCCCCCCCCNC(=O)OC/C1=C/CC[C@@]4(C)O[C@H]4[C@H]4OC(=O)[C@@H](CNCCCCCCCCNC(=O)OC/C5=C/CC[C@@]6(C)O[C@H]6[C@H]6OC(=O)C(=C)[C@@H]6CC5)[C@@H]4CC1)=C\CC[C@@]1(C)O[C@@H]31)=C\CC[C@@]1(C)O[C@@H]21` (stereo partly drawn) [JVM 3-62-1] registered a concentration for a half-maximal effect (EC50) in data set [1] of 1700 nM.

Consider `C[C@@]12CC/C=C3\CC[C@@H]4[C@H](OC(=O)[C@H]4CNCCCCCCCCNC[C@@H]4C(=O)O[C@H]5[C@H]4CC/C(=C\CC[C@@]4(C)O[C@@H]54)COC(=O)NCCCCCCCCNC(=O)OC3)[C@@H]1O2` [JVM 3-62-2], for which the EC50 in data set [1] stood at 38000 nM.

Consider `C=C1C(=O)OC2C1CCC(COC(=O)NCCCCCCNC(=O)OCC1=CCCC3(C)OC3C3OC(=O)C(=C)C3CC1)=CCCC1(C)OC21` [JVM 3-64, bis(((1aR,7aS,10aS,10bS,E)-1a-Methyl-8-methylene-9-oxo-1a,2,3,6,7,7a,8,9,10a,10b-decahydrooxireno[2′,3′:9,10]cyclodeca[1,2-b]furan-5-yl)methyl)hexane-1,6-diyldicarbamate], for which the CC50 in data set [2] was determined as 340 nM.

With `C=C1C(=O)O[C@H]2[C@H]1CC/C(COC(=O)NCCCCCCCCCCNC(=O)OC/C1=C/CC[C@@]3(C)O[C@H]3[C@H]3OC(=O)C(=C)[C@@H]3CC1)=C\CC[C@@]1(C)O[C@@H]21` [JVM 3-65, bis(((1aR,7aS,10aS, 10bS,E)-1a-Methyl-8-methylene-9-oxo-1a,2,3,6,7,7a,8,9,10a,10b-decahydrooxireno[2,3′:9,10]cyclodeca[1,2-b]furan-5-yl)methyl)decane-1,10-diyldicarbamate], in data set [2], the CC50 turned out to be 1600 nM.

As for `C=C1C(=O)OC2C1CCC(C(=O)NCCCCCCCCNC(=O)C1=CCCC3(C)OC3C3OC(=O)C(=C)C3CC1)=CCCC1(C)OC21` [JVM 3-78, (1aR,1a′R,4E,4′E,7aS,7a′S, 10aS, 10bS, 10a′S, 10b′S)—N,N′-(octane-1,8-diyl)bis(1a-methyl-8-methylene-9-oxo-1a,2,3,6,7,7a,8,9,10a,10b-decahydrooxireno[2′,3′:9,10]cyclodeca[1,2-b]furan-5-carboxamide)], the “potency relative to parthenolide and MMB” value in data set [2] was “more potency than parthenolide and MMB”.

Turning to `C=C1C(=O)OC2C1CCC(C(=O)NCCCCCCCCCNC(=O)C1=CCCC3(C)OC3C3OC(=O)C(=C)C3CC1)=CCCC1(C)OC21` [JVM 3-82, (1aR,1a′R,4E,4′E,7aS,7a′S,10aS,10bS,10a′S,10b′S)—N,N′-(nonane-1,9-diyl)bis(1a-methyl-8-methylene-9-oxo-1a,2,3,6,7,7a,8,9,10a,10b-decahydrooxireno[2 ′,3 ′9,10]cyclodeca[1,2-b]furan-5-carboxamide)], the “potency relative to parthenolide and MMB” value in data set [2] was “more potency than parthenolide and MMB”.

As to `C=C1C(=O)O[C@H]2[C@H]1CC/C(C(=O)NCCCCCCCCCCNC(=O)/C1=C/CC[C@@]3(C)O[C@H]3[C@H]3OC(=O)C(=C)[C@@H]3CC1)=C\CC[C@@]1(C)O[C@@H]21` [JVM 3-83, (1aR,1a′R,4E,4′E,7aS,7a′S,10aS, 10bS, 10a′S, 10b′S)—N,N′-(decane-1,10-diyl)bis(1a-methyl-8-methylene-9-oxo-1a,2,3,6,7,7a,8,9,10a,10b-decahydrooxireno[2′,3′:9,10]cyclodeca[1,2-b]furan-5-carboxamide)], in data set [2], the “potency relative to parthenolide and MMB” value is “more potency than parthenolide and MMB”; the half-maximal effective concentration (EC50) was 2800 nM. Besides, in data set [3], the “cytotoxicity relative to PTL” value is “enhanced cytotoxicity relative to PTL” and the EC50 came to 2800 nM.

With `C=C1C(=O)OC2C1CCC(C(=O)NCCCCCCCNC(=O)C1=CCCC3(C)OC3C3OC(=O)C(=C)C3CC1)=CCCC1(C)OC21` [JVM 3-84, (1aR,1a′R,4E,4′E,7aS,7a′S,10aS,10bS,10a′S,10b′S)—N,N′-(heptane-1,7-diyl)bis(1a-methyl-8-methylene-9-oxo-1a,2,3,6,7,7a,8,9,10a,10b-decahydrooxireno[2′,3′:9,10]cyclodeca[1,2-b]furan-5-carboxamide)], the “potency relative to parthenolide and MMB” value in data set [2] is “more potency than parthenolide and MMB”.

On to `C=C1C(=O)OC2C1CCC(COC(=O)OCCCCOC(=O)OCC1=CCCC3(C)OC3C3OC(=O)C(=C)C3CC1)=CCCC1(C)OC21` [JVM 3-91A, butane-1,4-diylbis(((1aR,7aS,10aS,10bS,E)-1a-methyl-8-methylene-9-oxo-1a,2,3,6,7,7a, 8,9,10a,10b-decahydrooxireno[2′,3′:9,10]cyclodeca[1,2-b]furan-5-yl)methyl)dicarbonate], for which the 50% effective concentration (EC50) in data set [2] stood at 930 nM. In addition, in data set [3], the “cytotoxicity relative to PTL” value was “enhanced cytotoxicity relative to PTL” and the EC50 turned out to be 930 nM.

The compound `C=C1C(=O)O[C@H]2[C@H]1CC/C(COC(=O)CC(=O)OC/C1=C/CC[C@@]3(C)O[C@H]3[C@H]3OC(=O)C(=C)[C@@H]3CC1)=C\CC[C@@]1(C)O[C@@H]21` [JVM 3-99, bis(((1aR,7aS,10aS,10bS,E)-1a-methyl-8-methylene-9-oxo-1a,2,3,6,7,7a,8,9,10a, 1b-decahydrooxireno[2′,3′:9,10]cyclodeca[1,2-b]furan-5-yl)methyl)malonate] returned an EC50 in data set [2] of 1000 nM. Further, in data set [3], the “cytotoxicity relative to PTL” value is recorded as “enhanced cytotoxicity relative to PTL” and the 50% effective concentration (EC50) came to 1000 nM.

On to `C=C1C(=O)O[C@H]2[C@H]1CC/C(Cn1cc(-c3cccc(-c4cn(C/C5=C/CC[C@@]6(C)O[C@H]6[C@H]6OC(=O)C(=C)[C@@H]6CC5)nn4)c3)nn1)=C\CC[C@@]1(C)O[C@@H]21` [JVM 4-41A], for which, in data set [1], the EC50 is 2300 nM.

As to `C=C1C(=O)O[C@H]2[C@H]1CC/C(Cn1cc(CNCc3cn(C/C4=C/CC[C@@]5(C)O[C@H]5[C@H]5OC(=O)C(=C)[C@@H]5CC4)nn3)nn1)=C\CC[C@@]1(C)O[C@@H]21` [JVM 4-44], the concentration giving a half-maximal response (EC50) in data set [1] is 51600 nM.

In turn, `C=C1C(=O)O[C@H]2[C@H]1CC/C(Cn1cc(CCCc3cn(C/C4=C/CC[C@@]5(C)O[C@H]5[C@H]5OC(=O)C(=C)[C@@H]5CC4)nn3)nn1)=C\CC[C@@]1(C)O[C@@H]21` [JVM 4-51] came in with a concentration for a half-maximal effect (EC50) in data set [1] of 4000 nM.
